Assay: H.S.I.T. with SAE-CD, PVP and water fill compositions
Format: physicochemical
Description: FIGS. 10a-10i depict ternary graphs correlating the concentration of SAE-CD, water and PVP in a fill composition to the H.S.I.T. rating of a soft shell capsule exposed to the fill composition. Aqueous fill solutions comprising differing amounts of PVP, SAE-CD and water were prepared. The stability tests were conducted as described below. The capsules described herein were used: SHIONOGI HGC (hard gelatin capsule) (FIG. 10A), […] HPMC hard shell capsule (FIG. 10b), SHIONOGI HPMC hard shell capsule (FIG. 10C), […] HGC (FIG. 10D), VEGAGEL hard shell capsule (FIG. 10E), hydrophilic fill-grade CARDINAL SGC (soft gelatin capsule) (FIG. 10f), lipophilic fill-grade CARDINAL SGC (FIG. 10g), hydrophilic fill-grade BANNER SGC (FIG. 10h), and lipophilic fill-grade BANNER SGC (FIG. 10i). No other shell-stabilizing material(s) was (were) included in the fill compositions evaluated. The results varied according to the capsule used. Stabilized aqueous fill composition-containing capsule formulations can be achieved with each capsule if one or more of the following fill compositions detailed below are used. • 1. Water comprises ≧55% of the fill composition, and the combination of SAE-CD, PVP, one or more optional excipients and one or more optional active agents comprises ≧45% of the fill composition; wherein SAE-CD can comprise up to 90% (85%, 83%, or 80%) of the weight of the fill composition, and PVP can comprise less than 90%, respectively, of the weight of the fill composition, provided that the fill composition comprises >≧35% PVP when SAE-CD comprises […]; ≦15% of the weight of the fill composition, and wherein both PVP (preferably water soluble or water swellable) and SAE-CD are present. • 2. Water comprises ≦45% of the fill composition, and the combination of SAE-CD, PVP, one or more optional excipients and one or more optional active agents comprises ≧55% of the fill composition; wherein SAE-CD can comprise up to 90% (85%, 83%, or 80%) of the weight of the fill composition, and PVP can comprise less than 90%, respectively, of the weight of the fill composition, provided that the fill composition comprises ≧35% PVP when SAE-CD comprises ≦20% of the weight of the fill composition, and wherein both PVP (preferably water soluble or water swellable) and SAE-CD are present. • 3. […]

[1] = SHIONOGI HPMC hard shell capsule

O [Water]
content in fill composition for an HSIT rating of at least 3 (SHIONOGI HGC): ≦54%
content in fill composition for an HSIT rating of at least 3 [1]: ≦60%

sulfobutyl ether cyclodextrin [SAE-CD]
content in fill composition for an HSIT rating of at least 3 (SHIONOGI HGC): ≧6%
content in fill composition for an HSIT rating of at least 3 [1]: ≧6%
